According to US11352604B2, “Method of making cardiomyocytes from human pluripotent cells” (Wisconsin Alumni Research Foundation, priority 2016, dated 2022):

Test system: hPSC-CMs
Assay: Bottom-up label-free quantitative proteomics, day 30 hPSC-CMs from pI:C-treated vs untreated progenitors
Type: cell-based, human
Experimental: Frozen CM pellets from day 30 in the H9 cTnT-GFP reporter cell line with or without pI:C treatment were washed with Ca^2+-free DPBS and centrifuged at 10,000 g for 10 min and the wash solvent was removed. 10 μl of 4 M urea, 0.5 M ammonium bicarbonate, 1 mM DTT, 10 mM L-methionine was added to the each pellet, and the pellets were vortexed and sonicated for 5 min, followed by incubation with shaking at 50° C. for 10 min. ProteaseMax™ surfactant was added to a final concentration of 0.04% and the pellets were vortexed and incubated at 37° C. for 10 min. 30 μl of water was added to the pellets, and the pellets were incubated at 80° C. for 20 min. After centrifugation at 16,000 g for 10 min, the supernatant was collected for Bradford assay to determine protein concentration. All samples were diluted to 800 ng/μl using 1 M urea and 125 mM ammonium bicarbonate, and 50 μl of the extract was reduced with 10 mM DTT for 30 min at 37° C., followed by alkylation with 25 mM Iodoacetamide for 30 min at room temperature in dark. The pH of the samples were tested to make sure the pH was between 7-8 and Trypsin Gold (Promega®) was added to a final trypsin to substrate ratio of 1:50 and incubated at 37° C. for overnight (16 hrs). Acetic acid was added to a final concentration of 5% (pH˜3) and the samples were centrifuged at 16,000 g for 30 min prior to LC-MS analysis.
Label-free quantitative proteomics analysis was performed using a high-resolution q-TOF mass spectrometer (Impact II, Bruker Daltonics). 3.6 μg of the protein digest were injected to a C18 (New Objective) trapping column for desalting at a flow rate of […] for 5 minutes. The peptides were separated on a 250 mm PicoFrit capillary column packed with 1.9 μm, 175 A Hypersil Gold aQ C18 particles (New Objective) at a flow rate of 300 nl/min by a gradient of 5-45% mobile phase B (0.1% formic acid in acetonitrile) (mobile phase A: 0.1% formic acid in water). The capillary column tip was customized to fit into the CaptiveSpray nanoESI source (Bruker Daltonics) for direct delivery of samples to the mass spectrometer. The most abundant 30 ions were selected for fragmentation by tandem MS (MS/MS) with an active (dynamic) exclusion time of 45 sec. The control group with and without pI:C treatment were analyzed with 5 and 6, respectively, biological replicates. Each sample was analyzed with 3 injection replicates. Protein identification and quantification were performed using the MaxQuant v1.5.7. Proteins were considered identified when at least 1 unique peptide was identified in at least 2 of the biological replicates. Label-free protein quantification was performed by first normalizing the intensity of the proteins (measured by both unique and razer peptides) to the median intensity of the same dataset, and the maximum and minimum of all the non-zero values (if more than 5 values are non-zero) were removed prior to averaging the datasets from the same group. […] Protein-protein interaction analysis was performed using the STRING database.

[1] = p<0.05 and >50% change, about 2,600 proteins detected

Substance: polyinosinic-polycytidylic acid [pI:C]
- number of proteins significantly downregulated [1]: 100 proteins
- number of proteins significantly upregulated [1]: 168 proteins
- Fold change (protein ABHD10): 2.205
- Fold change (protein ACSF2): 1.971
- Fold change (protein AGK): 2.084
- Fold change (protein AIFM1): 2.224
- Fold change (protein AK4): 0.122
- Fold change (protein AKAP12): 0.2108
- Fold change (protein ALDH18A1): 0.259
- Fold change (protein ARL6IP1): 0.2711
- Fold change (protein ATP5F1): 3.556
- Fold change (protein ATP6V1F): 0.284
- Fold change (protein BMP1): 2.714
- Fold change (protein C5orf24): 0.2927
- Fold change (protein CALD1): 0.3099
- Fold change (protein CAPZA1): 0.3292
- Fold change (protein CBWD1): 0.3341
- Fold change (protein CDC37): 0.3347
- Fold change (protein CDK9): 1.954
- Fold change (protein CDKN1B): 0.3393
- Fold change (protein CFC1, CFC1B): 2.61
- Fold change (protein CISD1): 6.047
- Fold change (protein CLNS1A): 0.3492
- Fold change (protein CLPX): 3.1174
- Fold change (protein COL1A2): 0.3554
- Fold change (protein COL2A1): 4.221
- Fold change (protein COL3A1): 0.3719
- Fold change (protein COL18A1): 0.3541
- Fold change (protein CPS1): 0.3857
- Fold change (protein CRLF3): 0.3949
- Fold change (protein CYB5R3): 2.279
- Fold change (protein DBT): 71.68
- Fold change (protein DCXR): 1.952
- Fold change (protein DKC1): 0.3962
- Fold change (protein DSG2): 0.3991
- Fold change (protein DYNLL1): 0.407
- Fold change (protein EDC4): 0.4111
- Fold change (protein EEF1B2): 0.416
- Fold change (protein EIF3A): 0.4235
- Fold change (protein EIF3K): 0.4335
- Fold change (protein ELAC2): 0.4539
- Fold change (protein EMC1): 3.674
- Fold change (protein EPN1): 2.525
- Fold change (protein EPS15L1): 2.414
- Fold change (protein ERLIN2): 2.026
- Fold change (protein EXOSC6): 0.4623
- Fold change (protein FABP5): 0.4749
- Fold change (protein FLNA): 0.4757
- Fold change (protein FLNB): 0.4767
- Fold change (protein FUBP1): 0.484
- Fold change (protein H6PD): 0.4845
- Fold change (protein HEATR6): 0.4857
- Fold change (protein HEBP2): 0.4867
- Fold change (protein HIST1H2AJ): 4.696
- Fold change (protein HMGCS1): 0.5003
- Fold change (protein HSDL1): 2.135
- Fold change (protein IMMT): 2.059
- Fold change (protein IQGAP1): 0.5083
- Fold change (protein ISOC1): 0.5114
- Fold change (protein ITM2B): 2.861
- Fold change (protein KLC4): 0.5119
- Fold change (protein KRT18, KRT35): 0.5128
- Fold change (protein KRT19): 0.5211
- Fold change (protein LAMA1): 2.03
- Fold change (protein LGALS1): 0.5211
- Fold change (protein LMCD1): 0.5226
- Fold change (protein LNP): 2.183
- Fold change (protein LRRC59): 0.5235
- Fold change (protein MAP2K4): 2.414
- Fold change (protein MEST): 0.5333
- Fold change (protein MRPS22): 1.976
- Fold change (protein MT-ATP8): 2.244
- Fold change (protein MTCH2): 1.99
- Fold change (protein MYL6): 0.534
- Fold change (protein MYO9B): 2.112
- Fold change (protein NDUFA4): 2.128
- Fold change (protein NGLY1): 0.5359
- Fold change (protein NIT2): 0.5435
- Fold change (protein NNT): 1.994
- Fold change (protein NSDHL): 2.081
- Fold change (protein NUP85): 2.249
- Fold change (protein OGFR): 0.5517
- Fold change (protein ORF1): 2.257
- Fold change (protein P4HB): 0.5531
- Fold change (protein PCCA): 2.032
- Fold change (protein PDLIM1): 0.5561
- Fold change (protein PDLIM3): 0.557
- Fold change (protein PHB2): 1.952
- Fold change (protein RAC1): 2.128
- Fold change (protein RAD54L2): 4.857
- Fold change (protein RRAS): 3.82
- Fold change (protein SLC25A1): 2.333
- Fold change (protein SLC25A3): 2.195
- Fold change (protein SLC25A12): 1.968
- Fold change (protein SMG7): 3.817
- Fold change (protein THBS1, THBS3, THBS2): 3.483
- Fold change (protein TMEM65): 2.197
- Fold change (protein UACA): 1.958
- Fold change (protein UBE4A): 5.484
- Fold change (protein UQCRB): 3.665
- Fold change (protein USMG5): 2.085
- Fold change (protein XPO7): 2.231
